Source: US8841321B2, “Quinoline derivatives as antibacterial agents” (Janssen Pharmaceutica NV, priority 2005, dated 2014)
Values after ≈ are worked out from the molar mass of the structure shown.

Experiments:
[1] = system: SPN 6305 (Streptococcus pneumoniae (ATCC6305)); assay: Microtitre plate assay, IC90 determination; assay type: cell-based; conditions: for IC90 (μg/ml) SPN 6305: Streptococcus pneumoniae (ATCC6305); for IC90: Streptococcus pneumoniae, ATCC6305, Streptococcus pneumoniae (ATCC6305), read-out: IC90 (μg/ml) SPN 6305
How it was run: (§1)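 Growth-inhibition endpoint: resazurin added 3 h after inoculation, plates incubated overnight, fluorescence at 530/590 nm after 24 h at 37 °C. Inocula of roughly 10–60 CFU per well in Mueller-Hinton medium; compounds titrated five-fold. IC90 reported as μg/ml.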

[2] = system: STA 29213 (Staphylococcus aureus (ATCC29213)); assay: Microtitre plate assay, IC90 determination; assay type: cell-based; conditions: for IC90 (μg/ml) STA 29213: Staphylococcus aureus (ATCC29213); for IC90: Staphylococcus aureus, ATCC29213, Staphylococcus aureus (ATCC29213), read-out: IC90 (μg/ml) STA 29213
How it was run: as §1

[3] = system: BSU 43639 (Bacillus subtilis (ATCC43639)); assay: Microtitre plate assay, IC90 determination; assay type: cell-based; conditions: Bacillus subtilis (ATCC43639)
[4] = system: EFA 29212 (Enterococcus faecalis (ATCC29212)); assay: Microtitre plate assay, IC90 determination; assay type: cell-based; conditions: for IC90 (μg/ml) EFA 29212: Enterococcus faecalis (ATCC29212); for IC90: Enterococcus faecalis, ATCC29212, Enterococcus faecalis (ATCC29212), read-out: IC90 (μg/ml) EFA 29212
[5] = system: LMO 49594 (Listeria monocytogenes (ATCC49594)); assay: Microtitre plate assay, IC90 determination; assay type: cell-based; conditions: Listeria monocytogenes (ATCC49594)
[6] = system: PAE 27853 (Pseudomonas aeruginosa (ATCC27853)); assay: Microtitre plate assay, IC90 determination; assay type: cell-based; conditions: for IC90 (μg/ml) PAE 27853: Pseudomonas aeruginosa (ATCC27853); for IC90: Pseudomonas aeruginosa, ATCC27853, Pseudomonas aeruginosa (ATCC27853), read-out: IC90 (μg/ml) PAE 27853
[7] = system: SPY 8668 (Streptococcus pyogens (ATCC8668)); assay: Microtitre plate assay, IC90 determination; assay type: cell-based; conditions: for IC90: Streptococcus, ATCC8668, Streptococcus pyogens (ATCC8668), read-out: IC90 (μg/ml) SPY 8668; for IC90 (μg/ml) SPY 8668: Streptococcus pyogens (ATCC8668)
[8] = system: STA RMETH (methicilline resistant Staphylococcus aureus (MRSA), a clinical isolate from the University of Antwerp); assay: Microtitre plate assay, IC90 determination; assay type: cell-based; conditions: for IC90: Staphylococcus aureus, MRSA, read-out: IC90 (μg/ml) STA RMETH
[9] = system: STA 25923 (Staphylococcus aureus (ATCC25923)); assay: Microtitre plate assay, IC90 determination; assay type: cell-based; conditions: Staphylococcus aureus (ATCC25923)
[10] = system: Staphylococcus aureus; assay: Time kill assay (broth microdilution method); assay type: cell-based; conditions: S. aureus; for bactericidal activity in time kill assay: observed at 1 and 10 times MIC90
Excerpt: (§2) Bactericidal or bacteriostatic activity of the compounds may be determined in a time kill assay using the broth microdilution method*. In a time kill assay on Staphylococcus aureus and methicillin resistant S. aureus (MRSA), the starting inoculum of S. aurues and MRSA is 10^6 CPU/ml in Muller Hinton broth. The antibacterial compounds are used at the concentration of 0.1 to 10 times the MIC (i.e. IC90 as determined in microtitre plate assay). Wells receiving no antibacterial agent constitute the culture growth control. The plates containing the microorganism and the test compounds are incubated at 37° C. After 0, 4, 24, and 48 hrs of incubation samples are removed for determination of viable counts by serial dilution (10^−1 to 10^−6) in sterile PBS and plating (200 μl) on Mueller Hinton agar. The plates are incubated at 37° C. for 24 hours and the number of colonies are determined. Killing curves can be constructed by plotting the log10CFU per ml versus time. A bactericidal effect is commonly defined as 3-log10 decrease in number of CFU per ml as compared to untreated inoculum. The potential carryover effect of the drugs is removed by serial dilutions and counting the colonies at highest dilution used for plating. No carryover effect is observed at the dilution of 10^−2 used for plating. […] Antimicrob. Agents Chemother. 40, 839-845 (1996).

[11] = system: methicillin resistant S. aureus (MRSA); assay: Time kill assay (broth microdilution method); assay type: cell-based, Staphylococcus aureus
Excerpt: as §2

| Compound | IC90 (μg/ml) SPN 6305 [1] | IC90 (μg/ml) STA 29213 [2] | melting point | IC90 (μg/ml) EFA 29212 [4] | IC90 (μg/ml) PAE 27853 [6] | IC90 (μg/ml) STA RMETH [8] | IC90 (μg/ml) SPY 8668 [7] | other results |
| --- | --- | --- | --- | --- | --- | --- | --- | --- |
| COc1ccc2cc(C(O)(CCCCN(C)C)C(c3ccccc3)c3cc4cc(Br)ccc4nc3OC)ccc2c1 (single isomer, unassigned) [Compound 5] | 2.4 µg/mL (≈ 3.91 µM) | 1.9 µg/mL (≈ 3.1 µM) | 96 °C | 1.9 µg/mL (≈ 3.1 µM) | 1.9 µg/mL (≈ 3.1 µM) | 1.9 µg/mL (≈ 3.1 µM) | – | IC90 (μg/ml) BSU 43639 [3]: 1.9 µg/mL (≈ 3.1 µM); IC90 (μg/ml) LMO 49594 [5]: 1.9 µg/mL (≈ 3.1 µM); IC90 [7]: 1.5 µg/mL (≈ 2.44 µM) |
| COc1nc2ccc(Br)cc2cc1C(c1ccccc1)C(O)(CCCCN(C)C)c1cc(F)cc(F)c1 (centres unmarked) [Compound 11] | – | 1.8 µg/mL (≈ 3.16 µM) | 157 °C | – | – | – | – | IC90 [1]: 9 µg/mL (≈ 15.8 µM); IC90 [4]: 9 µg/mL (≈ 15.8 µM); IC90 [6]: 9 µg/mL (≈ 15.8 µM); IC90 [7]: 9 µg/mL (≈ 15.8 µM); IC90 [8]: 11.4 µg/mL (≈ 20 µM) |
| COc1nc2ccc(Br)cc2cc1C(c1ccccc1)C(O)(CCCCN(C)C)c1ccc2ccccc2c1 (centres unmarked) [Compound 17] | 11.6 µg/mL (≈ 19.9 µM) | 9.3 µg/mL (≈ 15.9 µM) | 170 °C | 5.2 µg/mL (≈ 8.91 µM) | 2.3 µg/mL (≈ 3.94 µM) | 10.4 µg/mL (≈ 17.8 µM) | 4.6 µg/mL (≈ 7.88 µM) | IC90 (μg/ml) BSU 43639 [3]: 5.2 µg/mL (≈ 8.91 µM); IC90 (μg/ml) LMO 49594 [5]: 5.8 µg/mL (≈ 9.94 µM); IC90 (μg/ml) STA 25923 [9]: 2.3 µg/mL (≈ 3.94 µM) |
| COc1nc2ccc(Br)cc2cc1C(c1ccccc1)C(O)(CCCCN(C)C)c1ccc2ccccc2c1 (centres unmarked) [Compound 18] | 2.9 µg/mL (≈ 4.97 µM) | 46.4 µg/mL (≈ 79.5 µM) | – | 46.4 µg/mL (≈ 79.5 µM) | 23.2 µg/mL (≈ 39.8 µM) | – | 11.6 µg/mL (≈ 19.9 µM) | MIC (1×MIC; MIC i.e. IC90 as determined in microtitre plate assay) [10]: 12 µg/mL (≈ 20.6 µM); growth of treated samples in time kill assay ([10]; at 0.1 times the MIC): followed the control in growth; bactericidal activity in time kill assay [10]: bactericidal activity; bactericidal activity in time kill assay [11]: marked bactericidal activity |
| COc1nc2ccc(Br)cc2cc1C(c1ccccc1)C(O)(CCCCN(C)C)c1ccc2ccccc2c1 (centres unmarked) [Compound 22] | 58.4 µg/mL (≈ 100 µM) | 9.3 µg/mL (≈ 15.9 µM) | 166 °C | 4.1 µg/mL (≈ 7.03 µM) | 4.1 µg/mL (≈ 7.03 µM) | 58.4 µg/mL (≈ 100 µM) | 46.4 µg/mL (≈ 79.5 µM) | IC90 (μg/ml) BSU 43639 [3]: 58.4 µg/mL (≈ 100 µM); IC90 (μg/ml) LMO 49594 [5]: 11.6 µg/mL (≈ 19.9 µM); IC90 (μg/ml) STA 25923 [9]: 46.4 µg/mL (≈ 79.5 µM) |
| COc1ccc2cc(C(O)(CCCCN(C)C)C(c3ccccc3)c3cc4c(Br)cccc4nc3OC)ccc2c1 (centres unmarked) [Compound 26] | 4.3 µg/mL (≈ 7.01 µM) | 1.9 µg/mL (≈ 3.1 µM) | 164 °C | 1.9 µg/mL (≈ 3.1 µM) | 1.9 µg/mL (≈ 3.1 µM) | 10.9 µg/mL (≈ 17.8 µM) | 1.9 µg/mL (≈ 3.1 µM) | – |
| COc1nc2cccc(Br)c2cc1C(c1ccccc1)C(O)(CCCCN(C)C)c1ccc2ccccc2c1 (centres unmarked) [Compound 28] | 58.4 µg/mL (≈ 100 µM) | 1.9 µg/mL (≈ 3.26 µM) | 170 °C | – | – | 9.3 µg/mL (≈ 15.9 µM) | – | – |
| COc1ccc2cc(C(O)(CCCCN(C)C)C(c3ccccc3)c3cc4ccccc4nc3OC)ccc2c1 (centres unmarked) [Compound 34] | 1.9 µg/mL (≈ 3.55 µM) | 3.8 µg/mL (≈ 7.11 µM) | 179 °C | 8.5 µg/mL (≈ 15.9 µM) | 2.7 µg/mL (≈ 5.05 µM) | 10.7 µg/mL (≈ 20 µM) | 8.5 µg/mL (≈ 15.9 µM) | – |
| COc1nc2ccc(-c3ccco3)cc2cc1C(c1ccccc1)C(O)(CCCCN(C)C)c1ccc2ccccc2c1 (centres unmarked) [Compound 38] | 11.4 µg/mL (≈ 20 µM) | 4.5 µg/mL (≈ 7.88 µM) | 182 °C | – | – | 2.3 µg/mL (≈ 4.03 µM) | – | IC90 [4]: 7.2 µg/mL (≈ 12.6 µM); IC90 [6]: 9.1 µg/mL (≈ 15.9 µM); IC90 [7]: 9.1 µg/mL (≈ 15.9 µM) |
| CNCCCCC(O)(c1ccccc1)C(c1ccccc1)c1cc2cc(Br)ccc2nc1OC (centres unmarked) [Compound 53] | – | – | 121 °C | – | – | – | – | IC90 [1]: 0.41 µg/mL (≈ 0.789 µM); IC90 [2]: 1.64 µg/mL (≈ 3.16 µM); IC90 [4]: 1.64 µg/mL (≈ 3.16 µM); IC90 [6]: 8.23 µg/mL (≈ 15.8 µM); IC90 [7]: 1.64 µg/mL (≈ 3.16 µM); IC90 [8]: 9.2 µg/mL (≈ 17.7 µM) |
| COc1nc2ccc(CO)cc2cc1C(c1ccccc1)C(O)(CCCCN(C)C)c1ccc2ccccc2c1 (centres unmarked) [Compound 55] | – | – | 174 °C | – | – | – | – | IC90 [1]: 10.7 µg/mL (≈ 20 µM); IC90 [2]: 8.47 µg/mL (≈ 15.8 µM) |
| CNCCCC(O)(c1ccc(F)cc1)C(c1ccccc1)c1cc2cc(Br)ccc2nc1OC (centres unmarked) [Compound 68] | 1.9 µg/mL (≈ 3.63 µM) | 8.3 µg/mL (≈ 15.9 µM) | 188 °C | 18.6 µg/mL (≈ 35.5 µM) | 8.3 µg/mL (≈ 15.9 µM) | – | 1.7 µg/mL (≈ 3.25 µM) | – |
| CCN(CC)CCCCC(O)(CCc1cccc2ccccc12)C(c1ccccc1)c1cc2cc(Br)ccc2nc1OC (centres unmarked) [Compound 72] | 1.61 µg/mL (≈ 2.52 µM) | 2.02 µg/mL (≈ 3.16 µM) | 138 °C | – | – | 2.55 µg/mL (≈ 3.99 µM) | – | – |
| O=C(O)c1cn(C2CC2)c2cc(N3CCNCC3)c(F)cc2c1=O [ciprofloxacin, reference compound] | – | – | – | – | – | – | – | bactericidal activity in time kill assay [10]: bactericidal activity; bactericidal activity in time kill assay [11]: no bactericidal effect |
